Patent US20240158341A1, “COMPOUND, MANUFACTURING METHOD THEREFOR, ANTIMICROBIAL AGENT, AND MEDICINAL DRUG” (Murata Manufacturing Co., Ltd., priority 2021, published 2024)

How the values were obtained:
gram-positive bacteria [1] = conditions: against gram-positive bacteria; Non-Patent Literature 1; cited from earlier work
Bacillus subtilis = assay: Paper disc antimicrobial test; assay type: cell-based; conditions: 10 μg/6 mm disc
Description: (§1) An antimicrobial test against the following bacteria and fungi was performed using a paper disc (6 mm, manufactured by ADVANTEC) containing the compound (1a-1).
(§2) (1) Gram-Positive Bacteria • Mycobacterium smegmatis • Bacillus subtilis • Staphylococcus aureus • Micrococcus luteus
(§3) An antimicrobial test was performed with a 10 μg/6 mm disc, using the culture solution of the above bacteria and fungi. The test was conducted in accordance with the method described in Koyama et al., Calpinactam, a new anti-mycobacterial agent, produced by Mortierella alpina FKI-4905, The Journal of Antibiotics (2010) 63, pages 183 to 186.

Micrococcus luteus = assay: Paper disc antimicrobial test; assay type: cell-based; conditions: 10 μg/6 mm disc
Description: as §1, §2, §3

Mycobacterium smegmatis = assay: Paper disc antimicrobial test; assay type: cell-based; conditions: 10 μg/6 mm disc
Description: as §1, §2, §3

Staphylococcus aureus = assay: Paper disc antimicrobial test; assay type: cell-based; conditions: 10 μg/6 mm disc
Description: as §1, §2, §3

Candida albicans = assay: Paper disc antimicrobial test; assay type: cell-based; conditions: 10 μg/6 mm disc
Description: as §1
(§4) (3) Yeast • Candida albicans
as §3

gram-positive bacteria [2] = assay: Paper disc antimicrobial test, summary for gram-positive bacteria; assay type: cell-based; conditions: against gram-positive bacteria
Description: as §1, §2, §3

yeasts = assay: Paper disc antimicrobial test, summary for yeasts; assay type: cell-based; conditions: against yeasts
Description: as §1, §4, §3

Compound	antimicrobial activity (gram-positive bacteria [1])	Inhibitory zone (Bacillus subtilis)	Inhibitory zone (Micrococcus luteus)	Inhibitory zone (Mycobacterium smegmatis)	Inhibitory zone (Staphylococcus aureus)	Inhibitory zone (Candida albicans)	antimicrobial action (gram-positive bacteria [2])	antimicrobial action (yeasts)
hazimycin A	had an antimicrobial activity	–	–	–	–	–	–	–
[C-]#[N+][C@@H](Cc1ccc(O)c(-c2cc(C[C@H](NN)C(N)=O)ccc2O)c1)C(N)=O [compound (1a-1)]	–	14 mm	26 mm	19 mm	23 mm	20 mm	showed an antimicrobial action	showed an antimicrobial action
